Assays:
Cyclooxygenase = target: T1, Cyclooxygenase (Rattus norvegicus, UniProt P35355+Q63921)
T1 sequence (P35355 whole entry): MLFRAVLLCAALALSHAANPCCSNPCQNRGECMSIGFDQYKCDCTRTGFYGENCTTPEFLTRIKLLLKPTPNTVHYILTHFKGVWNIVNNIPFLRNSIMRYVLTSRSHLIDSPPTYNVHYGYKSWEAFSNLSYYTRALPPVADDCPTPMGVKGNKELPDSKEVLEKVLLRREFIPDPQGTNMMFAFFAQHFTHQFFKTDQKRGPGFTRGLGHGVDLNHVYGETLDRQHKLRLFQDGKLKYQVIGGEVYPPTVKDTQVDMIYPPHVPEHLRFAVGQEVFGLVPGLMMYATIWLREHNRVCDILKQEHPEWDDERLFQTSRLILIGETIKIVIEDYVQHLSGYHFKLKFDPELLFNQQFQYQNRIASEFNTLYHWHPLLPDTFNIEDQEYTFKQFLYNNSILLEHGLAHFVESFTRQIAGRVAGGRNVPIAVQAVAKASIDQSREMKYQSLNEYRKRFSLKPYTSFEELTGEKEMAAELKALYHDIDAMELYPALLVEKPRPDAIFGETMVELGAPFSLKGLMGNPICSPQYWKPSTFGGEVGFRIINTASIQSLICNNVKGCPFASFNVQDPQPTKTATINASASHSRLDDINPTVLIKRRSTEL
T1 sequence (Q63921 whole entry): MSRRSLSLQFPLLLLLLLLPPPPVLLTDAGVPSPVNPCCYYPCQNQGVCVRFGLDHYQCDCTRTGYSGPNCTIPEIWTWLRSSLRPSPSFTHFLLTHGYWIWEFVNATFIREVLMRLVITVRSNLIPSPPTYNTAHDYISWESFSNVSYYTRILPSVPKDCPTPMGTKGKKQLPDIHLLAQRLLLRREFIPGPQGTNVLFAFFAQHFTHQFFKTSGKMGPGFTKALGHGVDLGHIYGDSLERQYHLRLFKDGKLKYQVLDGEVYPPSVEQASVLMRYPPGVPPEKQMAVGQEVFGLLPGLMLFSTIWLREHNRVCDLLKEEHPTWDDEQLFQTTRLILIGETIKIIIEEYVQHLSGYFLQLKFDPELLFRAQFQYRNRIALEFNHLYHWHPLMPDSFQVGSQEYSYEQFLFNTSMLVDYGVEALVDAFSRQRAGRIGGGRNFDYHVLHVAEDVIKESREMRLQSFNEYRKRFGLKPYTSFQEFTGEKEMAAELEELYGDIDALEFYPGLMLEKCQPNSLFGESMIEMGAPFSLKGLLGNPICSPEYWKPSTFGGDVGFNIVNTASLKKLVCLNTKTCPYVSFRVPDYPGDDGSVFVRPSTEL
Description: In vitro inhibitory effect on production of prostaglandin E2 (PGE2) in rat synovial cells.

Homo sapiens = species on record: Homo sapiens; experiment: Inhibitory effect on production of (COX-1) thromboxane B2 (TXB2) in human platelet cells; assay type: functional, cell-based
[1] = Inhibitory effect on production of (COX-2) prostaglandin E2 (PGE2) in human IL1-beta stimulated synovial cells; assay type: functional
Rattus norvegicus [2] = species on record: Rattus norvegicus; experiment: Inhibitory effect for increase in plasma prostaglandin E2 (PGE2) level after arachidonic acid (AA) injection into COX-2 lipopolysaccharide-treated rats; assay type: functional
Rattus norvegicus [3] = species on record: Rattus norvegicus; experiment: Inhibitory effect for increase in plasma prostaglandin E2 (PGE2) level after arachidonic acid (AA) injection into, COX-1 non-lipopolysaccharide-treated rats; assay type: functional
Rattus norvegicus [4] = experiment: Percent inhibition of carrageenan-induced foot-pad edema at 30 mg/kg po; assay type: functional
THP-1 [5] = experiment: In vitro effect on production of lipopolysaccharide (LPS) -induced IL1-beta in human THP-1 cells; assay type: functional, cell-based
Rattus norvegicus [6] = species on record: Rattus norvegicus; experiment: In vitro effect on production of calcium ionophore (A23187) -induced Leukotriene B4 (LTB4) in rat peritoneal cells; assay type: functional, cell-based
Rattus norvegicus [7] = experiment: Percent inhibition of adjuvant-induced arthritis at 10 mg/kg po; assay type: functional
Rattus norvegicus [8] = species on record: Rattus norvegicus; experiment: Dose required for Ulcerogenic effect; assay type: functional
Rattus norvegicus [9] = experiment: Dose required for 30% inhibition of carrageenan-induced edema; assay type: functional
Rattus norvegicus [10] = species on record: Rattus norvegicus
Description: Lengths of bleeding ulcer of drug-administered group

Rattus norvegicus [11] = experiment: Percent inhibition of adjuvant-induced arthritis at 10 mg/kg poP<0.01; assay type: functional; conditions: read-out: Inhibition
Rattus norvegicus [12] = species on record: Rattus norvegicus; experiment: Dose required for 30% inhibition of adjuvant-induced arthritis; assay type: functional
THP-1 [13] = experiment: In vitro inhibitory effect on production of lipopolysaccharide (LPS)-induced IL1-beta in human THP-1 cells; assay type: functional, cell-based
Rattus norvegicus [14] = species on record: Rattus norvegicus; experiment: In vitro inhibitory effect on production of calcium ionophore (A23187)-induced Leukotriene B4 (LTB4) in rat peritoneal cells; assay type: functional, cell-based
Rattus norvegicus [15] = species on record: Rattus norvegicus; experiment: In vitro inhibitory effect on production of Prostaglandin E2 (PGE2) in rat synovial cells; assay type: functional
Rattus norvegicus [16] = species on record: Rattus norvegicus; experiment: In vitro inhibitory effect on production of, Prostaglandin E2 (PGE2) in rat synovial cells; assay type: functional
THP-1 [17] = experiment: In vitro inhibitory effect on production of, lipopolysaccharide (LPS) -induced IL1-beta in human THP-1 cells; assay type: functional, cell-based
Rattus norvegicus [18] = species on record: Rattus norvegicus; experiment: In vitro inhibitory effect on production of, calcium ionophore (A23187) -induced Leukotriene B4 (LTB4) in rat peritoneal cells; assay type: functional, cell-based
Rattus norvegicus [19] = species on record: Rattus norvegicus; experiment: Inhibitory effect for increase in plasma prostaglandin E2 (PGE2) level after arachidonic acid (AA) injection intoCOX-1 non-lipopolysaccharide-treated rats; assay type: functional
Rattus norvegicus [20] = species on record: Rattus norvegicus; experiment: Inhibitory effect for increase in plasma prostaglandin E2 (PGE2) level after arachidonic acid (AA) injection into COX-1 non-lipopolysaccharide-treated rats; assay type: functional

| Compound | IC50 (Cyclooxygenase) | IC50 (THP-1 [5]) | IC50 (Rattus norvegicus [6]) | inhibition in vivo at 30 mg/kg (Rattus norvegicus [4]) | further results |
| --- | --- | --- | --- | --- | --- |
| CC(C)(C)c1cc(/C=C2\CCN(c3cccnc3)S2(=O)=O)cc(C(C)(C)C)c1O | 0.32 µM |  |  |  |  |
| CS(=O)(=O)Nc1ccc([N+](=O)[O-])cc1OC1CCCCC1 [NS-398] |  |  |  |  | IC50 (Homo sapiens): 6.8 µM; IC50 [1]: 1.9 nM; ED50 (Rattus norvegicus [2]): 1 mg/kg; ED50 (Rattus norvegicus [3]): > 30 mg/kg |
| CC(C)(C)c1cc(/C=C2\CCNS2(=O)=O)cc(C(C)(C)C)c1O | 0.03 µM | > 100 µM | > 100000 nM | 17.2% | inhibition in vivo at 10 mg/kg (Rattus norvegicus [7]): 8.8% |
| CC(C)(C)c1cc(/C=C2\CCN(c3ccc(Cl)cc3)S2(=O)=O)cc(C(C)(C)C)c1O | < 0.001 µM | > 100 µM | 21000 nM | 6.3% |  |
| CC(C)(C)c1cc(/C=C2\CCN(C3CC3)S2(=O)=O)cc(C(C)(C)C)c1O | 0.0025 µM | 9 µM | 3200 nM | 21.4% | Dose (Rattus norvegicus [8]): 400 mg/kg; ED30 (Rattus norvegicus [9]): 11.9 mg/kg; Ulcer index (Rattus norvegicus [10]): 0.7 mm; ED30 (Rattus norvegicus [12]): 1.7 mg/kg; inhibition in vivo at 10 mg/kg (Rattus norvegicus [7]): 32.9% |
| CCN1CC/C(=C\c2cc(C(C)C)c(O)c(C(C)C)c2)S1(=O)=O |  |  |  |  | IC50 (THP-1 [13]): > 100 µM; IC50 (Rattus norvegicus [14]): > 100 µM; IC50 (Rattus norvegicus [15]): > 1000 nM |
| CCN1CC/C(=C\c2cc(OC)c(O)c(OC)c2)S1(=O)=O |  |  |  |  | IC50 (Rattus norvegicus [16]): > 1000 nM; IC50 (THP-1 [17]): > 100 µM; IC50 (Rattus norvegicus [18]): 2600 nM |
| CC(C)(C)c1cc(/C=C2/CCN(c3ccc(Cl)cc3)S2(=O)=O)cc(C(C)(C)C)c1O | < 0.001 µM |  |  |  |  |
| COc1ccc2c(c1)c(CC(=O)O)c(C)n2C(=O)c1ccc(Cl)cc1 [INDOMETHACIN] |  | > 100 µM | > 100000 nM |  | Dose (Rattus norvegicus [8]): 30 mg/kg; ED30 (Rattus norvegicus [9]): 0.8 mg/kg; ED50 (Rattus norvegicus [19]): 0.37 mg/kg; ED30 (Rattus norvegicus [12]): 0.06 mg/kg; ED50 (Rattus norvegicus [20]): 0.37 mg/kg |

Further lines, with some results ahead:

| IC50 (Cyclooxygenase) | IC50 (THP-1 [5]) | IC50 (Rattus norvegicus [6]) | Compound | inhibition in vivo at 30 mg/kg (Rattus norvegicus [4]) | further results |
| --- | --- | --- | --- | --- | --- |
| 3.4 µM |  |  | CC(C)(C)c1cc(/C=C2\CCN(CC(=O)O)S2(=O)=O)cc(C(C)(C)C)c1O |  |  |
| 0.0091 µM | 28 µM | 2800 nM | CN1CC/C(=C\c2cc(C(C)(C)C)c(O)c(C(C)(C)C)c2)S1(=O)=O | 61.4% | Dose (Rattus norvegicus [8]): 400 mg/kg; ED30 (Rattus norvegicus [9]): 5.4 mg/kg; Ulcer index (Rattus norvegicus [10]): 26.8 mm; inhibition in vivo at 10 mg/kg (Rattus norvegicus [11]): 39.4%; ED30 (Rattus norvegicus [12]): 0.64 mg/kg |
| 0.013 µM | 19 µM | 1900 nM | CCCN1CC/C(=C\c2cc(C(C)(C)C)c(O)c(C(C)(C)C)c2)S1(=O)=O | 0.3% | inhibition in vivo at 10 mg/kg (Rattus norvegicus [7]): 11.4% |
| 0.0021 µM | 10 µM | 2500 nM | CCN1CC/C(=C/c2cc(C(C)(C)C)c(O)c(C(C)(C)C)c2)S1(=O)=O | 7.3% | inhibition in vivo at 10 mg/kg (Rattus norvegicus [7]): 11.4% |
| 0.7 µM |  |  | CC(C)(C)c1cc(/C=C2/CCN(O)S2(=O)=O)cc(C(C)(C)C)c1O |  |  |
| < 0.001 µM | > 100 µM | 3000 nM | CON1CC/C(=C\c2cc(C(C)(C)C)c(O)c(C(C)(C)C)c2)S1(=O)=O | 26.5% | ED30 (Rattus norvegicus [9]): 34.7 mg/kg; ED30 (Rattus norvegicus [12]): 2.4 mg/kg; inhibition in vivo at 10 mg/kg (Rattus norvegicus [7]): 35.2% |
| 0.24 µM |  |  | CC(C)(C)c1cc(/C=C2\CCN(CCO)S2(=O)=O)cc(C(C)(C)C)c1O |  |  |
| 0.41 µM |  |  | CC(C)CN1CC/C(=C\c2cc(C(C)(C)C)c(O)c(C(C)(C)C)c2)S1(=O)=O |  |  |
| 0.32 µM |  |  | CC(C)N1CC/C(=C\c2cc(C(C)(C)C)c(O)c(C(C)(C)C)c2)S1(=O)=O |  |  |
